Format in all cases: biochemical
One test deals with HDAC1 (Homo sapiens, UniProt Q13547). The test can be described thus: HDAC enzymatic assay, HDAC1. How it is done: (§1) Each compound was dissolved in DMSO, and progressively diluted solutions were used for testing. […] Upon its deacetylation, the fluorophore was released given rise to fluorescence emission which was detected by a fluorimeter, and the IC50 values of the compounds were determined by analyzing dose-response inhibition curves.

A further test deals with HDAC2 (Homo sapiens, UniProt Q92769). The experiment in a line: HDAC enzymatic assay, HDAC2. Here is the method:
as §1

Test [1] addresses T1, HDAC3 (complex of full length human HDAC3 with human NCOR2 amino acids 395-489) (Homo sapiens, UniProt O15379).
T1 construct: complex of full length human HDAC3 with a C-terminal His-tag; His-tag (C); host or cells: baculovirus expression system
The test can be described thus: HDAC enzymatic assay, HDAC3. How it is done:
as §1

For a further test, the target named is HDAC4 (Homo sapiens, UniProt P56524). The experiment in a line: HDAC enzymatic assay, HDAC4. How it is done:
as §1

Another test concerns the target HDAC5 (Homo sapiens, UniProt Q9UQL6). The test can be described thus: HDAC enzymatic assay, HDAC5. Here is the method:
as §1

A further test deals with T2, HDAC8 (Homo sapiens, UniProt Q9BY41).
T2 sequence (Q9BY41 1-377): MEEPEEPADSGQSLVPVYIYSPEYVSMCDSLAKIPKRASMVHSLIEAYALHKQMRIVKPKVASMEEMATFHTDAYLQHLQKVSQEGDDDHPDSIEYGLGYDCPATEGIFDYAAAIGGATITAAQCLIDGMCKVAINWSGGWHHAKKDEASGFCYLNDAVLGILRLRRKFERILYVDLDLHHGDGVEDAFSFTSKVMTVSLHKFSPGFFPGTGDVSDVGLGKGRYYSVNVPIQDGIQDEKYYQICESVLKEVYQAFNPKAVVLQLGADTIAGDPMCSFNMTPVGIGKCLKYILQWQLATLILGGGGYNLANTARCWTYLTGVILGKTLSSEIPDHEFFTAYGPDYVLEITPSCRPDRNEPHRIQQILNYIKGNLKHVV
The experiment in a line: HDAC enzymatic assay, HDAC8. How it is done:
as §1

In another test the target is HDAC9 (Homo sapiens, UniProt Q9UKV0). The test can be described thus: HDAC enzymatic assay, HDAC9. How it is done: as §1
A further test has as its target T3, HDAC10 (Homo sapiens, UniProt Q969S8).
T3 sequence (Q969S8 1-669): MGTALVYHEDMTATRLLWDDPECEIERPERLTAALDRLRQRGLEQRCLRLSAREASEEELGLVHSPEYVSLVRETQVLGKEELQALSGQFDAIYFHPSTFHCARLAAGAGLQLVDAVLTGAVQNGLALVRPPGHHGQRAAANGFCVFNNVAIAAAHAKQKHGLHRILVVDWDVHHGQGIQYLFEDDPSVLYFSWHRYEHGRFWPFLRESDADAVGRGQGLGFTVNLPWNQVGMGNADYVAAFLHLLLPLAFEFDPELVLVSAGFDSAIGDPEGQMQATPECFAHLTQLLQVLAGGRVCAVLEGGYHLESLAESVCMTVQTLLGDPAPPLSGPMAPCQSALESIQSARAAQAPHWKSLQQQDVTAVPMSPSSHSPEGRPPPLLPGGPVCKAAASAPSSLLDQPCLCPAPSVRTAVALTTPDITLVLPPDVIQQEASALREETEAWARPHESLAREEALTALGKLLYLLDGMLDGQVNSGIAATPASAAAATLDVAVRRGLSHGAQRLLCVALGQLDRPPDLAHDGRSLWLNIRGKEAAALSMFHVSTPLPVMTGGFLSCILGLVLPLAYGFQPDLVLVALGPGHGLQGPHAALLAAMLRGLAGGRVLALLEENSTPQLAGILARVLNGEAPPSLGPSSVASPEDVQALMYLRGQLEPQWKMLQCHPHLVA
The test can be described thus: HDAC enzymatic assay, HDAC10. How it is done: as §1

The next test concerns the target T4, HDAC11 (Homo sapiens, UniProt Q96DB2).
T4 sequence (Q96DB2 1-347): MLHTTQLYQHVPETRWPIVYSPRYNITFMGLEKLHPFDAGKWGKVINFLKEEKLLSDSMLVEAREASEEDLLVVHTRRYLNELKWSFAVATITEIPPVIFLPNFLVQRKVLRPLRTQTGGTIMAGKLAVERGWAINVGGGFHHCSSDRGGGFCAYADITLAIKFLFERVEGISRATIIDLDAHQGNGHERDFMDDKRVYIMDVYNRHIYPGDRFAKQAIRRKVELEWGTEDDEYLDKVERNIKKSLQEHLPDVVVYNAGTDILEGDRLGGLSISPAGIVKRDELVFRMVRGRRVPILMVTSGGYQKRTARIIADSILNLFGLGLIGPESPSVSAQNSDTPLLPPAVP
The test can be described thus: HDAC enzymatic assay, HDAC11. Here is the method:
as §1

[2] abbreviates: fluorogenic tetrapeptide RHKKAc substrate 10 μM, read-out: HDAC isoforms IC50 (nM), 1.
Setting [3] is: fluorogenic tetrapeptide RHKKAc substrate 10 μM, read-out: HDAC isoforms IC50 (nM), 2.
The mark [4] stands for this setting: fluorogenic tetrapeptide RHKKAc substrate 10 μM, read-out: HDAC isoforms IC50 (nM), 3.
Setting [5] is: fluorogenic tetrapeptide RHKKAc substrate 10 μM, read-out: HDAC isoforms IC50 (nM), 4.
Setting [6] is: fluorogenic tetrapeptide RHKKAc substrate 10 μM, read-out: HDAC isoforms IC50 (nM), 5.
Setting [7] is: fluorogenic tetrapeptide RHKKAc substrate 10 μM, read-out: HDAC isoforms IC50 (nM), 8.
Setting [8] is: fluorogenic tetrapeptide RHKKAc substrate 10 μM, read-out: HDAC isoforms IC50 (nM), 9.
The mark [9] stands for this setting: fluorogenic tetrapeptide RHKKAc substrate 10 μM, read-out: HDAC isoforms IC50 (nM), 10.
The mark [10] stands for this setting: fluorogenic tetrapeptide RHKKAc substrate 10 μM, read-out: HDAC isoforms IC50 (nM), 11.

The text below walks through data of patent US8927533B2, “Thio derivatives bearing lactams as potent HDAC inhibitors and their uses as medicaments” (SIGMA-TAU Industrie Farmaceutiche Riunite S.p.A., priority 2011, dated 2015).

Where two headings read alike, the source gives them in different places.

Chain of HDAC5 (Q9UQL6 whole entry): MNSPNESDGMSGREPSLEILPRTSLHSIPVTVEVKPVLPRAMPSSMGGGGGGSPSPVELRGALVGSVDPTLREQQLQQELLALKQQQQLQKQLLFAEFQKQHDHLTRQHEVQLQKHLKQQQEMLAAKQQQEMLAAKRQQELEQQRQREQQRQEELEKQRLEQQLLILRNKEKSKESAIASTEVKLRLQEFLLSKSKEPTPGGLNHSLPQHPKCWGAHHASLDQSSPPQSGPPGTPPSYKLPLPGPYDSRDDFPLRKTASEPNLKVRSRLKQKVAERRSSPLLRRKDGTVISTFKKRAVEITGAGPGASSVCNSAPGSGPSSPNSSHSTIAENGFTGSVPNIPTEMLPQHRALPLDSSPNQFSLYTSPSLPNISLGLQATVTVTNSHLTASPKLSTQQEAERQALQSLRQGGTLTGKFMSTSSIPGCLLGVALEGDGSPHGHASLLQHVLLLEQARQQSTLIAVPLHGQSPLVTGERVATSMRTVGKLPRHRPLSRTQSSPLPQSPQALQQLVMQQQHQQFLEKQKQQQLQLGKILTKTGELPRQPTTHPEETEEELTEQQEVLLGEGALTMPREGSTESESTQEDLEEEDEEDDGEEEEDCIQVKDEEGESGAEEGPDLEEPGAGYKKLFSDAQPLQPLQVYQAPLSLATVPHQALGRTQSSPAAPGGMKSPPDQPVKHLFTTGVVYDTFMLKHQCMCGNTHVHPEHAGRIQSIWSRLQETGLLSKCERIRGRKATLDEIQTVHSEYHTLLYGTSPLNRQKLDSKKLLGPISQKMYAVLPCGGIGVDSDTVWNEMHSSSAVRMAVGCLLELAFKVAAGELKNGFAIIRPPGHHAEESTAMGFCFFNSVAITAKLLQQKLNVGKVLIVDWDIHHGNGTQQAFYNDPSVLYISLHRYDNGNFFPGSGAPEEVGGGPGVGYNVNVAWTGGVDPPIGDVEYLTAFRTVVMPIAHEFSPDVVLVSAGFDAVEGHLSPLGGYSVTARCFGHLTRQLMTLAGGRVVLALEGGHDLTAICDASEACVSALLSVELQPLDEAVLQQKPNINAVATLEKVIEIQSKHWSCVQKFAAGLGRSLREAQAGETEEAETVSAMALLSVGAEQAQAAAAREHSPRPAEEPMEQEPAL
Chain of HDAC9 (Q9UKV0 whole entry): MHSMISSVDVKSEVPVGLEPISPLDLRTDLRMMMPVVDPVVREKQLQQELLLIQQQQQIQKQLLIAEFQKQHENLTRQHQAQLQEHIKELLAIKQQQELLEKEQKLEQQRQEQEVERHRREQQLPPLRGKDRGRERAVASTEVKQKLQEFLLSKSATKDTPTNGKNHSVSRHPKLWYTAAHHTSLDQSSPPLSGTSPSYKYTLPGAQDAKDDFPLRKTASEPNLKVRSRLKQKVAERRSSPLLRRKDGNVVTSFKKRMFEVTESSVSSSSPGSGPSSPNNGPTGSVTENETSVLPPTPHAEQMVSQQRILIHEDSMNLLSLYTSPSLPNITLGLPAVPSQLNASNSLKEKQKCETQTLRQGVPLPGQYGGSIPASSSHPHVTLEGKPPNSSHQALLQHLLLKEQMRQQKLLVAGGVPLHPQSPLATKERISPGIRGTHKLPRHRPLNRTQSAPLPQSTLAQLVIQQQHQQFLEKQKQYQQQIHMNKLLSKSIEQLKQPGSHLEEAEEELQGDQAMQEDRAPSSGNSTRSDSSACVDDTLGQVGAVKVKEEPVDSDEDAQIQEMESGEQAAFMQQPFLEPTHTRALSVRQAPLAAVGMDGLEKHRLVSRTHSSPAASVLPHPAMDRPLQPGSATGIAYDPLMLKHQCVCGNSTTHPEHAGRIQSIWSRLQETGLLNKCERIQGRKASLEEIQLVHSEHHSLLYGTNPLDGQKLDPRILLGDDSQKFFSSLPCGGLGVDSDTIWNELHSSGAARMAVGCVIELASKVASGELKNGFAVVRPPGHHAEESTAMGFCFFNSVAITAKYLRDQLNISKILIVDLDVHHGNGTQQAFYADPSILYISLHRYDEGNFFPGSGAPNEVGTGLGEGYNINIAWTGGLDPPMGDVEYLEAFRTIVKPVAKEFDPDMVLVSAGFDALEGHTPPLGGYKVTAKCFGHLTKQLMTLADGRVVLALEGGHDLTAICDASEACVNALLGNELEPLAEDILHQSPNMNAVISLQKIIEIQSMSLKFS
Chain of HDAC1 (Q13547 whole entry): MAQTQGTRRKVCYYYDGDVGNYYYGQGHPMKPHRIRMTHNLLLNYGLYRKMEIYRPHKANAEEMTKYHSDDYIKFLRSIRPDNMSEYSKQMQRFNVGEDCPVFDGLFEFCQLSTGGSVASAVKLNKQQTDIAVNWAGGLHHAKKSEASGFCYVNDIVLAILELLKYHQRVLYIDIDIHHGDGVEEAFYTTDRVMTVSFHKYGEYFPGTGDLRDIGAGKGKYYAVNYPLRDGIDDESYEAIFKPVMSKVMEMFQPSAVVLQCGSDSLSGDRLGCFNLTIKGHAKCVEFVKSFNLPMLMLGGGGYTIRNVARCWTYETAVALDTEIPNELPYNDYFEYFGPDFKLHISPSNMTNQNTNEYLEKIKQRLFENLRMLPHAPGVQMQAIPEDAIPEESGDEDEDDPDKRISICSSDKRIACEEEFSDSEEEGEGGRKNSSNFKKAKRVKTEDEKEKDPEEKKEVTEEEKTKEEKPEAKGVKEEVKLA
T1 sequence (O15379 whole entry, the tested form may be a part): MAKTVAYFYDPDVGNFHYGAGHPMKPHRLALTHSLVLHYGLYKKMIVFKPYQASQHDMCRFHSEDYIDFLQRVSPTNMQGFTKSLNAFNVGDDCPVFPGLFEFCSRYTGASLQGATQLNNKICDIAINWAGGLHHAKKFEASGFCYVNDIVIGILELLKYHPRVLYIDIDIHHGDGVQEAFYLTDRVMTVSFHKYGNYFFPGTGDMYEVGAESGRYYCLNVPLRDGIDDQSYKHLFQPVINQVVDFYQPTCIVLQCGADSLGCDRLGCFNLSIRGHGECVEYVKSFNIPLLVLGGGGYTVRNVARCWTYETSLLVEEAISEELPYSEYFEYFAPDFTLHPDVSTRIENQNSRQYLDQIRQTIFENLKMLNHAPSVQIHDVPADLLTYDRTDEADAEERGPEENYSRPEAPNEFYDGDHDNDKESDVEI
T1 sequence (Q9Y618 395-489 partner limits assumed): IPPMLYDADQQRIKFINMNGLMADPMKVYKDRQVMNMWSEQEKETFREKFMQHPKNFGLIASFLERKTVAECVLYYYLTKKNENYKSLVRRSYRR
Chain of HDAC4 (P56524 whole entry): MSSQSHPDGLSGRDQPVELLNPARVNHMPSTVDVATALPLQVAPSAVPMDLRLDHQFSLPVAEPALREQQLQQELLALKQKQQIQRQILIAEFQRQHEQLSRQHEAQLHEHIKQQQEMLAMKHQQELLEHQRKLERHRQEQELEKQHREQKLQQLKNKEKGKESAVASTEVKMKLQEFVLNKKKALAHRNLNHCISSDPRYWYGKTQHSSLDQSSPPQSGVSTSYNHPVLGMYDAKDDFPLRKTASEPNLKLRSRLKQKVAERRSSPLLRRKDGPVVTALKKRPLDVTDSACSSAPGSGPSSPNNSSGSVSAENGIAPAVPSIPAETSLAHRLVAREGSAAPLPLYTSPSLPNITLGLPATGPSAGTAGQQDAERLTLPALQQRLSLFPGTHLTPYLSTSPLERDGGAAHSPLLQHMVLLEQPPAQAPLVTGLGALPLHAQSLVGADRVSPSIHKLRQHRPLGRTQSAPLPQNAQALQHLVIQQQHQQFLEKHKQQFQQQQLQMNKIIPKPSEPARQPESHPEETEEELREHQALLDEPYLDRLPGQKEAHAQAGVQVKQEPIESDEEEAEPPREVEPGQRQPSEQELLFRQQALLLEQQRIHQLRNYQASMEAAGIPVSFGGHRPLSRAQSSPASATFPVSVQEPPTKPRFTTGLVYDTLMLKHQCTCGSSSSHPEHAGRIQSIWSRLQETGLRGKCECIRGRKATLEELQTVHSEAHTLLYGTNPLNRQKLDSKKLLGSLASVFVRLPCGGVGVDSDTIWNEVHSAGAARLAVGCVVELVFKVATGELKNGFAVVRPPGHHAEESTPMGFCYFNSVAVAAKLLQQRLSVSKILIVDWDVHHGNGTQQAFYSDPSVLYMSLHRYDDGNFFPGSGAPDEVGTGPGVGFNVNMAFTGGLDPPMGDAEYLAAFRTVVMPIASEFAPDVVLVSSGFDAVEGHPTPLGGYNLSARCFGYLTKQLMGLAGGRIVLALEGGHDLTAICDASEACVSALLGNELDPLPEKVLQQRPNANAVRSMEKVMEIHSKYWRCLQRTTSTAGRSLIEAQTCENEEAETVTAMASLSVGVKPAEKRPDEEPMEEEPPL
Chain of HDAC2 (Q92769 whole entry): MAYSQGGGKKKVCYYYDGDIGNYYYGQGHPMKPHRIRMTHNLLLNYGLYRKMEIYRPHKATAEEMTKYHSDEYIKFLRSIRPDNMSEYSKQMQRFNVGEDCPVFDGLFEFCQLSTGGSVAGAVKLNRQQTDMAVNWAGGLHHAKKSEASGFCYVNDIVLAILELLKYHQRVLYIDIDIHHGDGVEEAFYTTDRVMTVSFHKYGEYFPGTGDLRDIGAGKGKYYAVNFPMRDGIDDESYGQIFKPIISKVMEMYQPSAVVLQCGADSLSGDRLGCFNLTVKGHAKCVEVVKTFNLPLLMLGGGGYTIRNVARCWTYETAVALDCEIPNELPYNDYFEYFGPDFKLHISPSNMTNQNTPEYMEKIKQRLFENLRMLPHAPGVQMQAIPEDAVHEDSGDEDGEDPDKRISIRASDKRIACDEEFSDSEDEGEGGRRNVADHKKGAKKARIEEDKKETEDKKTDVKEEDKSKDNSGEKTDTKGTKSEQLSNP

Turning to `O=C1NCCC[C@@H]1C(=O)N[C@@H](CCCCCS)C(=O)Nc1ccccc1` [Example 36, (S)-2-Oxo-piperidine-3-carboxylic acid ((S)-6-mercapto-1-phenylcarbamoyl-hexyl)amide], the IC50 at HDAC1 (setting [2]) was less than 50 nM; at HDAC2 (setting [3]) it was less than 50 nM; in [1] (setting [4]), less than 50 nM; at HDAC4 (setting [5]), less than 50 nM; at HDAC5 (setting [6]) it was less than 50 nM; on HDAC8 (setting [7]), 100 to 500 nM. Besides, the IC50 at HDAC9 (setting [8]), at HDAC10 (setting [9]) and at HDAC11 (setting [10]) was less than 50 nM throughout.

Regarding `Cc1ccc(NC(=O)[C@H](CCCCCS)NC(=O)[C@@H]2CCCC(=O)N2)cc1` [Example 39, (S)-6-Oxo-piperidine-2-carboxylic acid ((S)-6-mercapto-1-p-tolylcarbamoyl-hexyl)amide], the IC50 on HDAC1 (setting [2]) is less than 50 nM; on HDAC2 (setting [3]), 50 to 100 nM; in test [1] (setting [4]), less than 50 nM; on HDAC4 (setting [5]), 100 to 500 nM; at HDAC5 (setting [6]), less than 50 nM; at HDAC8 (setting [7]) it was 100 to 500 nM. In addition, the IC50 at HDAC9 (setting [8]), on HDAC10 (setting [9]) and at HDAC11 (setting [10]) was less than 50 nM in each case.

As for `Cc1cccc(CCNC(=O)[C@H](CCCCCS)NC(=O)[C@@H]2CCCC(=O)N2)c1` [Example 34, (S)-6-Oxo-piperidine-2-carboxylic acid [(S)-6-mercapto-1-(2-m-tolyl-ethylcarbamoyl)hexyl]-amide], the IC50 on HDAC1 (setting [2]) is 50 to 100 nM; at HDAC2 (setting [3]), 100 to 500 nM; in test [1] (setting [4]) it was 100 to 500 nM; at HDAC4 (setting [5]), less than 50 nM; at HDAC5 (setting [6]), 100 to 500 nM; at HDAC8 (setting [7]), less than 50 nM. In addition, the IC50 at HDAC9 (setting [8]) lay within 100 to 500 nM; on HDAC10 (setting [9]), 50 to 100 nM; on HDAC11 (setting [10]), 50 to 100 nM.

For `O=C1CCC[C@@H](C(=O)N[C@@H](CCCCCS)C(=O)N2CCc3ccccc3C2)N1` [Example 32, (S)-6-Oxo-piperidine-2-carboxylic acid [(S)-1-(3,4-dihydro-1H-isoquinoline-2-carbonyl)-6-mercapto-hexyl]-amide], the IC50 on HDAC1 (setting [2]) is 100 to 500 nM; on HDAC2 (setting [3]), less than 50 nM; in test [1] (setting [4]), 100 to 500 nM; on HDAC4 (setting [5]) it was less than 50 nM; on HDAC5 (setting [6]), 100 to 500 nM; at HDAC8 (setting [7]), 100 to 500 nM. Besides, the IC50 on HDAC9 (setting [8]), on HDAC10 (setting [9]) and on HDAC11 (setting [10]) was 100 to 500 nM throughout.

Regarding `O=C1CCC[C@@H](C(=O)N[C@@H](CCCCCS)C(=O)Nc2ccccc2)N1` [Example 23, (S)-6-Oxo-piperidine-2-carboxylic acid ((S)-6-mercapto-1-phenylcarbamoyl-hexyl)amide], the IC50 on HDAC1 (setting [2]) was less than 50 nM; on HDAC2 (setting [3]), 50 to 100 nM; in [1] (setting [4]), less than 50 nM; at HDAC4 (setting [5]), less than 50 nM; at HDAC5 (setting [6]), less than 50 nM; on HDAC8 (setting [7]), 100 to 500 nM. Besides, the IC50 at HDAC9 (setting [8]), on HDAC10 (setting [9]) and at HDAC11 (setting [10]) was less than 50 nM each time.

Turning to `O=C1CC[C@H](C(=O)N[C@@H](CCCCCS)C(=O)Nc2ccccc2)N1` [Example 33, (R)-5-Oxo-pyrrolidine-2-carboxylic acid ((S)-6-mercapto-1-phenylcarbamoyl-hexyl)amide], the IC50 is less than 50 nM at HDAC1 (Table 2, thio (SH) vs hydroxamate (CONHOH) MBG analogues, read-out: HDAC isoforms, 1 (IC50)); less than 50 nM at HDAC1 (setting [2]); 50 to 100 nM on HDAC2 (Table 2, thio (SH) vs hydroxamate (CONHOH) MBG analogues, read-out: HDAC isoforms, 2 (IC50)); 50 to 100 nM on HDAC2 (setting [3]); less than 50 nM in test [1] (Table 2, thio (SH) vs hydroxamate (CONHOH) MBG analogues, read-out: HDAC isoforms, 3 (IC50)); less than 50 nM in test [1] (setting [4]). The IC50 is 50 to 100 nM at HDAC4 (Table 2, thio (SH) vs hydroxamate (CONHOH) MBG analogues, read-out: HDAC isoforms, 4 (IC50)); 50 to 100 nM on HDAC4 (setting [5]); less than 50 nM on HDAC5 (Table 2, thio (SH) vs hydroxamate (CONHOH) MBG analogues, read-out: HDAC isoforms, 5 (IC50)); less than 50 nM on HDAC5 (setting [6]); 100 to 500 nM on HDAC8 (Table 2, thio (SH) vs hydroxamate (CONHOH) MBG analogues, read-out: HDAC isoforms, 8 (IC50)); 100 to 500 nM at HDAC8 (setting [7]). For the same molecule, the concentration for half-maximal inhibition (IC50) on HDAC9 (Table 2, thio (SH) vs hydroxamate (CONHOH) MBG analogues, read-out: HDAC isoforms, 9 (IC50)) is less than 50 nM; at HDAC9 (setting [8]), less than 50 nM; at HDAC10 (Table 2, thio (SH) vs hydroxamate (CONHOH) MBG analogues, read-out: HDAC isoforms, 10 (IC50)) it was less than 50 nM; on HDAC10 (setting [9]) it was less than 50 nM; at HDAC11 (Table 2, thio (SH) vs hydroxamate (CONHOH) MBG analogues, read-out: HDAC isoforms, 11 (IC50)), less than 50 nM; at HDAC11 (setting [10]), less than 50 nM.

Consider `O=C1C[C@@H](C(=O)N[C@@H](CCCCCS)C(=O)Nc2ccccc2)N1` [Example 27, (S)-4-Oxo-azetidine-2-carboxylic acid ((S)-6-mercapto-1-phenylcarbamoyl-hexyl)amide], for which the IC50 is less than 50 nM at HDAC1 (setting [2]); 50 to 100 nM at HDAC2 (setting [3]); less than 50 nM in test [1] (setting [4]); 100 to 500 nM at HDAC4 (setting [5]); less than 50 nM at HDAC5 (setting [6]); 50 to 100 nM on HDAC8 (setting [7]). Further, the IC50 on HDAC9 (setting [8]), at HDAC10 (setting [9]) and on HDAC11 (setting [10]) was less than 50 nM each time.

Take `O=C1NC[C@@H](c2ccccc2)[C@H]1C(=O)N[C@@H](CCCCCS)C(=O)Nc1ccccc1` [Example 29, (3R,4R)-2-Oxo-4-phenyl-pyrrolidine-3-carboxylic acid ((S)-6-mercapto-1-phenylcarbamoyl-hexyl)-amide]: the IC50 was 50 to 100 nM at HDAC1 (setting [2]); 100 to 500 nM on HDAC2 (setting [3]); 50 to 100 nM in test [1] (setting [4]); less than 50 nM on HDAC4 (setting [5]); 100 to 500 nM on HDAC5 (setting [6]); 100 to 500 nM on HDAC8 (setting [7]). For the same molecule, the concentration for half-maximal inhibition (IC50) is 50 to 100 nM at HDAC9 (setting [8]), less than 50 nM on HDAC10 (setting [9]) and less than 50 nM at HDAC11 (setting [10]).

Regarding `O=C1CCC[C@H](C(=O)N[C@@H](CCCCCS)C(=O)Nc2ccccc2)N1` [Example 37, (R)-6-Oxo-piperidine-2-carboxylic acid ((S)-6-mercapto-1-phenylcarbamoyl-hexyl)amide], the half-maximal inhibitory concentration (IC50) at HDAC1 (setting [2]) was less than 50 nM; on HDAC2 (setting [3]), less than 50 nM; in test [1] (setting [4]) it was less than 50 nM; at HDAC4 (setting [5]) it was less than 50 nM; at HDAC5 (setting [6]) it was less than 50 nM; at HDAC8 (setting [7]), 100 to 500 nM. In addition, the half-maximal inhibitory concentration (IC50) on HDAC9 (setting [8]), on HDAC10 (setting [9]) and on HDAC11 (setting [10]) was less than 50 nM throughout.
